For 25 compounds, IC50 results are on record in patent US20230146675A1, “PYRIMIDO[5,4-d]PYRIMIDINE DERIVATIVES AS ENT INHIBITORS FOR THE TREATMENT OF CANCERS, AND COMBINATION THEREOF WITH ADENOSINE RECEPTOR ANTAGONISTS” (ITEOS BELGIUM SA, priority 2020, published 2023).

pIC50: −log10 of the molar value.

The experiment addresses T1, human ENT1 (Homo sapiens, UniProt Q99808).
T1 sequence (Q99808 1-456): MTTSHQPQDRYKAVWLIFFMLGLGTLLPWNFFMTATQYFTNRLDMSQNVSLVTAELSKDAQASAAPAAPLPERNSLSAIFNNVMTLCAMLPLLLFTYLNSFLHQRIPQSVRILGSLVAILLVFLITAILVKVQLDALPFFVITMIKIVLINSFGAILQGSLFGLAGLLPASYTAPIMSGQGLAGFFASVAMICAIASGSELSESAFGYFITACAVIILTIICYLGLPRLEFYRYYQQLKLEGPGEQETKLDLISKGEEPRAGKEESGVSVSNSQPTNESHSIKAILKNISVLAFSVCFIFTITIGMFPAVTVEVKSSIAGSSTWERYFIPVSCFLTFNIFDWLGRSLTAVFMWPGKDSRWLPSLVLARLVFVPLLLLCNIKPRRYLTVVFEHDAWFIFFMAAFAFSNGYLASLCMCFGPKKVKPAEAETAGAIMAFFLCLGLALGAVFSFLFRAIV
Nature of the experiment: ENT1 binding assay (competition with Sahenta-DY647 on JAR cells). Also on record: JAR cells expressing ENT1 were bought from ATCC; host or cells: JAR cells. To be noted: binned IC50. In a few lines: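 JAR cells were incubated with test compounds and the fluorescent ligand Sahenta-DY647 in competition. Plates were washed twice by centrifugation (4 min, 400 rcf, 4 °C). Binding potency was derived from the final fluorescence.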
As usually defined, the pIC50 is −log10 of the IC50, conventionally taken in molar units. A low value points to a high IC50. `COCCN(CCOC)c1nc(N2CCC(OC)CC2)c2nc(N(CCOC)CCOC)nc(NCCCO)c2n1` [Compound 175, 3-((2,6-bis(bis(2-methoxyethyl)amino)-8-(4-methoxypiperidin-1-yl)pyrimido[5,4-d]pyrimidin-4-yl)amino)propan-1-ol] showed a negative logarithm of the IC50 (pIC50) of 6.00 to 6.30.

Turning to `COCCN(CCOC)c1nc(N2CCN(C)C(=O)C2)c2nc(N(CCOC)CCOC)nc(N(C)Cc3ccc(F)c(F)c3)c2n1` [Compound 239, 4-(2,6-bis(bis(2-methoxyethyl)amino)-8-((3,4-difluorobenzyl)(methyl)amino)pyrimido[5,4-d]pyrimidin-4-yl)-1-methylpiperazin-2-one], the pIC50 is above 7.00.

With `CCOC(=O)N1CCN(c2nc(N3CCC(OC)CC3)c3nc(N(CCOC)CCOC)nc(N4CCC(OC)CC4)c3n2)CC1` [Compound 31, ethyl 4-(6-(bis(2-methoxyethyl)amino)-4,8-bis(4-methoxypiperidin-1-yl)pyrimido[5,4-d]pyrimidin-2-yl)piperazine-1-carboxylate], the pIC50 was 6.00 to 6.30.

For `COCCN(CCOC)c1nc(N2CCC(F)(F)CC2)c2nc(N(CCO)CCO)nc(N3CCC(F)(F)CC3)c2n1` [Compound 19, 2,2′-((6-(bis(2-methoxyethyl)amino)-4,8-bis(4,4-difluoropiperidin-1-yl)pyrimido[5,4-d]pyrimidin-2-yl)azanediyl)diethanol], the negative-log IC50 (pIC50) was 6.30 to 7.00.

Compound `COCCN(CCOC)c1nc(N2CCN(C)C(=O)C2)c2nc(N(CCOC)CCOC)nc(N(C)Cc3cccc(C(N)=O)c3)c2n1` [Compound 240, 3-(((2,6-bis(bis(2-methoxyethyl)amino)-8-(4-methyl-3-oxopiperazin-1-yl)pyrimido[5,4-d]pyrimidin-4-yl)(methyl)amino)methyl)benzamide] had a negative logarithm of the IC50 (pIC50) of 6.30 to 7.00.

`COCCN(CCOC)c1nc(N2CCN(c3cccnc3)CC2)c2nc(N(CCOC)CCOC)nc(N3CCC(OC)CC3)c2n1` [Compound 118, N2,N2,N6,N6-tetrakis(2-methoxyethyl)-4-(4-methoxypiperidin-1-yl)-8-(4-(pyridin-3-yl)piperazin-1-yl)pyrimido[5,4-d]pyrimidine-2,6-diamine] showed a negative-log IC50 (pIC50) of 6.30 to 7.00.

Consider `COCCN(CCOC)c1nc(N2CCN(C)C(=O)C2)c2nc(N(CCOC)CCOC)nc(N3CCCCC3)c2n1` [Compound 319, 4-(2,6-bis(bis(2-methoxyethyl)amino)-8-(piperidin-1-yl)pyrimido[5,4-d]pyrimidin-4-yl)-1-methylpiperazin-2-one], for which the pIC50 was 6.30 to 7.00.

Take `COCCN(Cc1ccc(C(=O)O)c(C)c1)c1nc(N2CCN(C)C(=O)C2)c2nc(N(CCOC)CCOC)nc(N3CCC(OC)CC3)c2n1` [Compound 338, 4-(((6-(bis(2-methoxyethyl)amino)-8-(4-methoxypiperidin-1-yl)-4-(4-methyl-3-oxopiperazin-1-yl)pyrimido[5,4-d]pyrimidin-2-yl)(2-methoxyethyl)amino)methyl)-2-methylbenzoic acid]: the pIC50 is above 7.00.

Take `CCN(CCN1CCCCC1)c1nc(N2CCC(OC)CC2)c2nc(N(CCOC)CCOC)nc(N3CCC(OC)CC3)c2n1` [Compound 133, N2-ethyl-N6,N6-bis(2-methoxyethyl)-4,8-bis(4-methoxypiperidin-1-yl)-N2-(2-(piperidin-1-yl)ethyl)pyrimido[5,4-d]pyrimidine-2,6-diamine]: the pIC50 was 6.00 to 6.30.

Compound `COCCN(CCOC)c1nc(N2CCN(C)C(=O)C2)c2nc(N(CCOC)CCOC)nc(N(C)Cc3cccc(OC)c3)c2n1` [Compound 235, 4-(2,6-bis(bis(2-methoxyethyl)amino)-8-((3-methoxybenzyl)(methyl)amino)pyrimido[5,4-d]pyrimidin-4-yl)-1-methylpiperazin-2-one] had a negative-log IC50 (pIC50) above 7.00.

`COCCN(CCOC)c1nc(N2CCn3ncnc3C2)c2nc(N(CCOC)CCOC)nc(N3CCn4ncnc4C3)c2n1` [Compound 9, 4,8-bis(5,6-dihydro-[1,2,4]triazolo[1,5-a]pyrazin-7(8H)-yl)-N2,N2,N6,N6-tetrakis(2-methoxyethyl)pyrimido[5,4-d]pyrimidine-2,6-diamine] had a pIC50 of 6.30 to 7.00.

For the compound `COCCN(CCOC)c1nc(N2CCC(OC)CC2)c2nc(N(CCOC)CCOC)nc(OCc3cccc(C#N)c3)c2n1` [Compound 156, 3-(((2,6-bis(bis(2-methoxyethyl)amino)-8-(4-methoxypiperidin-1-yl)pyrimido[5,4-d]pyrimidin-4-yl)oxy)methyl)benzonitrile], the pIC50 is 6.30 to 7.00.

As for `COCCN(CCOC)c1nc(N2CCC(OC)CC2)c2nc(N(CCOC)CCOC)nc(NCc3cccc(F)c3)c2n1` [Compound 142, N4-(3-fluorobenzyl)-N2,N2,N6,N6-tetrakis(2-methoxyethyl)-8-(4-methoxypiperidin-1-yl)pyrimido[5,4-d]pyrimidine-2,4,6-triamine], the negative logarithm of the IC50 (pIC50) is above 7.00.

In the case of `COCCN(CCOC)c1nc(N2CCN(C)C(=O)C2)c2nc(N3CCN(C(C)=O)CC3)nc(N3CCC(OC)CC3)c2n1` [Compound 281, 4-(6-(4-acetylpiperazin-1-yl)-2-(bis(2-methoxyethyl)amino)-8-(4-methoxypiperidin-1-yl)pyrimido[5,4-d]pyrimidin-4-yl)-1-methylpiperazin-2-one], the negative-log IC50 (pIC50) is 6.00 to 6.30.

`COCCN(CCOC)c1nc(N2CCC(OC)CC2)c2nc(N(CCOC)CCOC)nc(NCCc3ccncc3)c2n1` [Compound 64, N2,N2,N6,N6-tetrakis(2-methoxyethyl)-8-(4-methoxypiperidin-1-yl)-N4-(2-(pyridin-4-yl)ethyl)pyrimido[5,4-d]pyrimidine-2,4,6-triamine] showed a pIC50 of 6.30 to 7.00.

For the compound `COCCN(CCOC)c1nc(N2CCN(C)C(=O)C2)c2nc(N3CCc4[nH]cnc4C3)nc(N3CCC(OC)CC3)c2n1` [Compound 291, 4-(2-(bis(2-methoxyethyl)amino)-8-(4-methoxypiperidin-1-yl)-6-(1,4,6,7-tetrahydro-5H-imidazo[4,5-c]pyridin-5-yl)pyrimido[5,4-d]pyrimidin-4-yl)-1-methylpiperazin-2-one], the negative logarithm of the IC50 (pIC50) was 6.00 to 6.30.

Compound `COCCN(CCOC)c1nc(N2CCC(OC)CC2)c2nc(N(CCO)CCO)nc(N3CC(=O)N4CCCC4C3)c2n1` (stereo not shown) [Compound 313, 2-(2-(bis(2-hydroxyethyl)amino)-6-(bis(2-methoxyethyl)amino)-8-(4-methoxypiperidin-1-yl)pyrimido[5,4-d]pyrimidin-4-yl)hexahydropyrrolo[1,2-a]pyrazin-4(1H)-one] had a negative-log IC50 (pIC50) of 6.30 to 7.00.

On to `COCCN(Cc1ccc(C(=O)O)c(F)c1)c1nc(N2CCN(C)C(=O)C2)c2nc(N(CCOC)CCOC)nc(N3CCC(OC)CC3)c2n1` [Compound 336, 4-(((6-(bis(2-methoxyethyl)amino)-8-(4-methoxypiperidin-1-yl)-4-(4-methyl-3-oxopiperazin-1-yl)pyrimido[5,4-d]pyrimidin-2-yl)(2-methoxyethyl)amino)methyl)-2-fluorobenzoic acid], for which the negative-log IC50 (pIC50) is above 7.00.

Consider `COCCN(CCOC)c1nc(N2CCN(C)C(=O)C2)c2nc(N(CCOC)CCOC)nc(NCc3cccc(S(C)(=O)=O)c3)c2n1` [Compound 212, 4-(2,6-bis(bis(2-methoxyethyl)amino)-8-((3-(methylsulfonyl)benzyl)amino)pyrimido[5,4-d]pyrimidin-4-yl)-1-methylpiperazin-2-one], for which the pIC50 is 6.00 to 6.30.

In turn, `COCCN(CCOC)c1nc(N2CCN(c3ccc(C#N)cn3)CC2)c2nc(N(CCOC)CCOC)nc(N3CCC(OC)CC3)c2n1` [Compound 124, 6-(4-(2,6-bis(bis(2-methoxyethyl)amino)-8-(4-methoxypiperidin-1-yl)pyrimido[5,4-d]pyrimidin-4-yl)piperazin-1-yl)nicotinonitrile] gave a pIC50 of 6.30 to 7.00.

`COCCN(CCOC)c1nc(N2CCCC(CO)C2)c2nc(N(CCOC)CCOC)nc(N3CCC(OC)CC3)c2n1` (stereo not shown) [Compound 115, (1-(2,6-bis(bis(2-methoxyethyl)amino)-8-(4-methoxypiperidin-1-yl)pyrimido[5,4-d]pyrimidin-4-yl)piperidin-3-yl)methanol]: the pIC50 was 6.30 to 7.00.

As to `COCCN(CCOC)c1nc(N2CCS(=O)(=O)CC2)c2nc(N(CCOC)CCOC)nc(N3CCC(OC)CC3)c2n1` [Compound 77, 4-(2,6-bis(bis(2-methoxyethyl)amino)-8-(4-methoxypiperidin-1-yl)pyrimido[5,4-d]pyrimidin-4-yl)thiomorpholine 1,1-dioxide], the pIC50 is above 7.00.

With `COC1CCN(c2nc(N(CCOC(C)=O)CCOC(C)=O)nc3c(N4CCC(OC)CC4)nc(N(CCOC(C)=O)CCOC(C)=O)nc23)CC1` [Compound 15, ((4,8-bis(4-methoxypiperidin-1-yl)pyrimido[5,4-d]pyrimidine-2,6-diyl)bis(azanetriyl))tetrakis(ethane-2,1-diyl)tetraacetate], the negative-log IC50 (pIC50) was above 7.00.

As to `COCCN(Cc1ccc(C(=O)O)cc1)c1nc(N2CCN(C)C(=O)C2)c2nc(N(CCOC)CCOC)nc(N3CCC(OC)CC3)c2n1` [Compound 333, 4-(((6-(bis(2-methoxyethyl)amino)-8-(4-methoxypiperidin-1-yl)-4-(4-methyl-3-oxopiperazin-1-yl)pyrimido[5,4-d]pyrimidin-2-yl)(2-methoxyethyl)amino)methyl)benzoic acid], the pIC50 is 6.00 to 6.30.

On to `COCCN(CCOC)c1nc(N2CCn3cncc3C2)c2nc(N(CCOC)CCOC)nc(N3CCN(C)C(=O)C3)c2n1` [Compound 250, 4-(2,6-bis(bis(2-methoxyethyl)amino)-8-(5,6-dihydroimidazo[1,5-a]pyrazin-7(8H)-yl)pyrimido[5,4-d]pyrimidin-4-yl)-1-methylpiperazin-2-one], for which the negative logarithm of the IC50 (pIC50) was 6.30 to 7.00.
